# Assay results reported in patent US20250205233A1, “EPIDERMAL GROWTH FACTOR RECEPTOR (EGFR) TYROSINE KINASE INHIBITORS IN COMBINATION WITH AN AKT INHIBITOR FOR THE TREATMENT OF CANCER” (AstraZeneca AB, priority 2022, published 2025).
# “Also recorded” adds a separate entry of the source. Read-outs that look alike come from different tables or passages of the source.
# Columns and labels:
# [1] = tested on: p-S6 in PC9 PTEN^KO cells; assay: Intracellular changes by WB analysis; format: cell-based, human; settings: treated for 3 weeks with osimertinib 160 nM
# [2] = tested on: P-EGFR, MAPK signalling, P-AKT and P-S6 in PC9-PIK3CAm cells; assay: Intracellular changes by WB analysis; format: cell-based, human; settings: 4 h
# PC9 PIK3CA^H1047R cells = settings: osimertinib alone
# HCC-827 PTEN^KO cells = format: cell-based, human
# [3] = tested on: HCC-827 PTEN^KO xenograft; settings: mouse
# Description: (§1) e) PC9 PTEN-KO and HCC827 PTEN-KO cell lines were cultured in RPMI1640 supplemented with 10% FCS and cultured in a humidified incubator with 5% CO2 at 37° C. PC9 PTEN-KO and HCC827 PTEN-KO xenografts were established by subcutaneous implantation of 5×10^6, cells per animal, in 100 μL of cell suspension including 50% matrigel, into the flank of female NOD/SCID and nude mice respectively. All mice were older than 6 weeks at the time of cell implant. Tumour growth was monitored twice weekly by bilateral calliper measurements and tumour volume calculated using the formula TV (mm3)=[length (mm)×width (mm)2]×0.5, where the length and the width are the longest and the shortest diameters of the tumour.
# PC9-PIK3CAm cells = assay: Clonogenic assay; format: cell-based, human; settings: osimertinib 160 nM, 8 days, crystal violet
# Text: Cells were stained with Crystal violet at the end of the treatment (8 days) and cell density (% surface) quantified by ImageJ.
# PC9 PTEN^KO xenograft = assay: Xenograft model, tumour volume; format: in vivo, NOD/SCID mice
# Description: as §1
# [4] = tested on: PIK3CA H1047R and PIK3CA E453K-positive cells; assay: Osimertinib selection of CRISPR knock-in cell pools, DNA sequencing; format: cell-based, human; settings: osimertinib (100 nM) for 3 weeks; NGS and SANGER sequencing
# Text: As the efficiency of knock-ins using this technology is usually low, only a small proportion of cells was expected to be genetically modified, thus mimicking the emergence of a co-occurring resistance mutation in a tumour.
# PC9 PTEN^KO cells = assay: Clonogenic assay (long term); format: cell-based, human; settings: 160 nM osimertinib
smiles,measurement,setting,value
"C=CC(=O)Nc1cc(Nc2nccc(-c3cn(C)c4ccccc34)n2)c(OC)cc1N(C)CCN(C)C [osimertinib, N-(2-{2-dimethylaminoethyl-methylamino}-4-methoxy-5-{[4-(1-methylindol-3-yl)pyrimidin-2-yl]amino}phenyl)prop-2-enamide]",p-S6 levels (western blot),[1],persistent p-S6 levels
same,levels of P-AKT and P-S6 (western blot),"[2]; 160 nM osimertinib alone, PC9-PIK3CAm cells",refractory
same,P-EGFR levels and MAPK signalling (western blot),"[2]; 160 nM osimertinib, parental and PC9-PIK3CAm cells",downregulation of P-EGFR levels and MAPK signalling
same,osimertinib-induced apoptotic response (caspase 3/7 activation) compared to parental PC9,PC9 PIK3CA^H1047R cells,diminished apoptotic response
same,osimertinib-induced apoptotic response (caspase 3/7 activation) compared to parental PC9,PC9 PIK3CA^H1047R cells; listed as Osimertinib,Diminished apoptotic response
same,clonogenic growth: resistance to osimertinib compared to parental cells,HCC-827 PTEN^KO cells,resulted in osimertinib resistance; also recorded: develop resistance
same,cell density (% surface) higher than parental HCC-827,"HCC-827 PTEN^KO cells; 160 nM osimertinib, after 3 weeks",20 X
same,degree of resistance to Osimertinib in vivo,[3],at best very modest
same,clonogenic growth (cell density): resistance to osimertinib compared to parental PC9,PC9-PIK3CAm cells,developed resistance
same,degree of resistance to Osimertinib in vivo,PC9 PTEN^KO xenograft,at best very modest
same,outgrowth of PIK3CA-mutant cells under osimertinib selection,[4],conferred resistance
same,cell density higher than parental PC9 cells,PC9 PTEN^KO cells,2 ×
same,clonogenic growth: resistance to osimertinib compared to parental cells,PC9 PTEN^KO cells; 3 or 5 weeks,milder resistance phenotype; also recorded: develop resistance
